Data set [1] relates to P. berghei-ANKA-GFP-LucCON liver stage parasites in HepG2-A16-CD81EGFP cells. Kind of data set: P. berghei liver stage Pb-Luc assay, Method 1 (UCSD, 1536-well). It is filed as cell-based, Plasmodium berghei. As to conditions: Plasmodium berghei, Method 1; log10 of molar AC50 from Hill fit; read-out: Log AC50 (converted).
Data set [2] concerns luciferase-expressing P. berghei liver stage parasites in HepG2 cells. Kind of data set: Inhibition of liver-stage development assay (ILSDA), Method 2 (WRAIR, 96-well). It is filed as cell-based, Plasmodium berghei. To be noted: for AC50: Plasmodium berghei, HepG2, Method 2.
For data set [3], the target named is T1, Firefly luciferase (Fluc, EC 1.13.12.7) (Photinus pyralis, UniProt P08659). Kind of data set: biochemical. Further details: Firefly luciferase enzyme inhibition counterscreen, luminescence with ATP and D-luciferin. To be noted: read-out: Log AC50 (the source's name) (converted). On the procedure: (§1) Compound activity against the Photinus pyralis luciferase (Firefly luciferase, Fluc) reporter utilized for the liver stage assay was determined as previously described using 10 nM Fluc (EC 1.13.12.7) and 10 μM of each substrate (ATP and D-luciferin)[68]. […] Luminescence was detected using ViewLux µHTS Microplate Imager. A counter screen of these 4253 compounds was also performed against the Fluc enzyme, as both liver stage methods utilized a transgenic P. berghei Fluc parasite.
T1 sequence (P08659 whole entry): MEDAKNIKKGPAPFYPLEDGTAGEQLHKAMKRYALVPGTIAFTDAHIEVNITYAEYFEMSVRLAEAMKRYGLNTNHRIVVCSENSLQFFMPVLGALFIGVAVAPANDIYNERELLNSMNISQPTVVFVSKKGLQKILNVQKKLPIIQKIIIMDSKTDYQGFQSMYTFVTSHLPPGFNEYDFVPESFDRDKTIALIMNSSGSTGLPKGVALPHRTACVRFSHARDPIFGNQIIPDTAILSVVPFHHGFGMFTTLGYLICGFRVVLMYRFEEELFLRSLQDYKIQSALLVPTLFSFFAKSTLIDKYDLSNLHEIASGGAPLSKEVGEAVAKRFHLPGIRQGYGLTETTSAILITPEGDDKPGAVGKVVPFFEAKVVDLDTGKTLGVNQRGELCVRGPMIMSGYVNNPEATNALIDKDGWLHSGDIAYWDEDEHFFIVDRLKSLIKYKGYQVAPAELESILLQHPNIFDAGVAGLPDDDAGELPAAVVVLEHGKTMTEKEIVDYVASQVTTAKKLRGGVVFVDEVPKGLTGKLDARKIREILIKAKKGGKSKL

In data set [4] the target is T1, Firefly luciferase (Fluc, EC 1.13.12.7). Briefly: biochemical. Further details: Firefly luciferase enzyme inhibition counter-screen, luminescence read-out. The method, then:
as §1

In data set [5] the test system is HepG2. To be noted: human, hepg2 cells, 48 h.
Data set [6] in a line: in vitro. To be noted: human, hepg2 cells.

Molecules are shown by their SMILES. Like-named read-outs stand apart in the source and are kept apart here. Where only a bound is given, the exact number is not on record here.

The record followed here is article PMC7822874, “Chemoprotective antimalarials identified through quantitative high-throughput screening of Plasmodium blood and liver stage parasites” (Scientific Reports, 2021).

Take `CCN(CC)CCCN(c1ccccc1)C1Cc2ccccc2C1.Cl` [NCGC00167576-01]: the concentration at half-maximal activity (AC50) in data set [1] is 1.58 µM; in data set [2] (Hill fit, 50% of maximum activity response, read-out: AC50), 7.94 µM; in data set [2] (log10 of molar AC50 from Hill fit, read-out: Log AC50 (converted)), 7.94 µM; in data set [4] it was above 57 µM. Further, in data set [2] (Method 2, Decrease = decreasing P. berghei viability with dose, Increase = increasing signal, Inactive = no dose response), the “Max Resp (signal direction of the dose response)” value was “Decrease”. In addition, in data set [3], the IC50 was above 57 µM. Besides, the “Log AC50 (M)” value in data set [5] was -4.5643 M. In data set [6], this molecule had a CC50 at 48 h of 27.3 µM.

As usually defined, the AC50 is the midpoint of the concentration-response curve, whichever way the signal moves. As a reminder, the CC50 is the concentration that lowers cell viability or growth by half. High values mean better tolerance by the cells, low ones harm at low concentration.
